We go through 18 compounds from patent US20180155344A1, “TRICYCLIC PIPERIDINE COMPOUNDS” (ACTELION PHARMACEUTICALS LTD, priority 2015, published 2018).

For test [1], the system named is 5HT. The note with it: 200 mg/kg i.p. qid for 3 days, cited from earlier work.
Test [2] deals with cholangiocarcinoma. The note with it: xenograft model of cholangiocarcinoma; cited from earlier work.
The target of test [3] is T1, human TPH1 (Homo sapiens, UniProt P17752).
T1 sequence (P17752 1-444): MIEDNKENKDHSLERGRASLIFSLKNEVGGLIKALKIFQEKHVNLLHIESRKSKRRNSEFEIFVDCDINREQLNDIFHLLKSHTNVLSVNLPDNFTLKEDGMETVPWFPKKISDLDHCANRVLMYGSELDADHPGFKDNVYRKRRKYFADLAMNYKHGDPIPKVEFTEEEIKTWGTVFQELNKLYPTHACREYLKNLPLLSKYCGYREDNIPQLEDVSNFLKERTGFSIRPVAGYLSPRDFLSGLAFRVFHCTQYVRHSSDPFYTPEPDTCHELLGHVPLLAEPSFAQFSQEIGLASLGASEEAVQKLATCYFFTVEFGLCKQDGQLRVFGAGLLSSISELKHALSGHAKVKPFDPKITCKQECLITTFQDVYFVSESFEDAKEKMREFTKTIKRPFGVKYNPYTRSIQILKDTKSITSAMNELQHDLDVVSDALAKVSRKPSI
The test can be described thus: biochemical. In a few lines: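 Inhibition is derived from 5-hydroxy-L-tryptophan fluorescence (540 nm emission, 300 nm excitation) after perchloric acid stop, relative to DMSO vehicle. Recombinant full-length human enzyme (40-80 nM) reacts with 40 μM tryptophan plus 100 μM methyltetrahydropterin, pH 7.6 Tris/DTT/catalase, 15° C, 60 min.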

The subject of test [4] is 5HT. The note with it: mice, cited from earlier work.
In test [5] the test system is 5HT. The note with it: phase IIA study, qid; cited from earlier work.
In test [6] the test system is 5HT. The note with it: cited from earlier work.

As to `N[C@@H](Cc1ccc(Cl)cc1)C(=O)O` (racemic) [PCA, p-chlorophenylalanine], in test [1] (brain), the “5HT in the brain” value is reported as roughly 20 % original. Besides, the “5HT in the gut” value in test [1] (gut) is reported as roughly 50 % original. The tumor volume entry in test [2] was “dramatic reduction in tumor volume”. One may read the IC50 as the concentration that gives 50% inhibition. The low end stands for greater potency in that assay, the high end for weaker potency in that assay. Consider `CS(=O)(=O)Nc1ccc(OCC(=O)N2CCc3nc4c(F)cccn4c3C2c2ccc(Cl)cc2F)c(Cl)n1` (stereo not shown) [Example 15.1.1, N-(6-chloro-5-(2-(1-(4-chloro-2-fluorophenyl)-6-fluoro-3,4-dihydroimidazo[1,2-a:5,4-c′]dipyridin-2(1H)-yl)-2-oxoethoxy)pyridin-2-yl)methanesulfonamide], for which, in test [3], the IC50 worked out at 2650 nM. With `O=C(COc1ccc(N2CCOCC2)cc1Cl)N1CCc2nc3cccnn3c2C1c1ccc(C2CC2)cc1F` (stereo not shown) [Example 16.1.1, 2-(2-chloro-4-morpholinophenoxy)-1-(9-(4-cyclopropyl-2-fluorophenyl)-6,9-dihydropyrido[4′,3′:4,5]imidazo[1,2-b]pyridazin-8(7H)-yl)ethan-1-one], the IC50 in test [3] was 19 nM. In test [3], `O=C(COc1ccc(N2CCOCC2)nc1Cl)N1CCc2nc3cccnn3c2C1c1ccc(C2CC2)cc1F` (stereo not shown) [Example 16.1.2, 2-((2-chloro-6-morpholinopyridin-3-yl)oxy)-1-(9-(4-cyclopropyl-2-fluorophenyl)-6,9-dihydropyrido[4′,3′:4,5]imidazo[1,2-b]pyridazin-8(7H)-yl)ethan-1-one] had an IC50 of 8 nM. Take `O=C(COc1ccc(N2CCOCC2)nc1Cl)N1CCc2nc3cccnn3c2C1c1ncc(C2CC2)cc1F` (stereo not shown) [Example 16.2.1, 2-((2-chloro-6-morpholinopyridin-3-yl)oxy)-1-(9-(5-cyclopropyl-3-fluoropyridin-2-yl)-6,9-dihydropyrido[4′,3′:4,5]imidazo[1,2-b]pyridazin-8(7H)-yl)ethan-1-one]: it took 14 nM to reach half-maximal inhibition in test [3] (IC50). Consider `CCc1nc(C)ccc1OCC(=O)N1CCc2nc3cccnn3c2C1c1ncc(C2CC2)cc1F` (stereo not shown) [Example 16.2.2, 1-(9-(5-cyclopropyl-3-fluoropyridin-2-yl)-6,9-dihydropyrido[4′,3′:4,5]imidazo[1,2-b]pyridazin-8(7H)-yl)-2-((2-ethyl-6-methylpyridin-3-yl)oxy)ethan-1-one], for which, in test [3], the half-inhibitory concentration (IC50) came to 128 nM. This IC50 is about 9.1-fold higher than that of the compound before. On to `O=C(COc1cccnc1C(F)(F)F)N1CCc2nc3cccnn3c2C1c1ncc(C2CC2)cc1F` (stereo not shown) [Example 16.2.3, 1-(9-(5-cyclopropyl-3-fluoropyridin-2-yl)-6,9-dihydropyrido[4′,3′:4,5]imidazo[1,2-b]pyridazin-8(7H)-yl)-2-((2-(trifluoromethyl)pyridin-3-yl)oxy)ethan-1-one], for which the IC50 in test [3] is 144 nM. Regarding `O=C(COc1ccc(C(F)(F)F)cc1Cl)N1CCc2nc3cccnn3c2C1c1ncc(C2CC2)cc1F` (stereo not shown) [Example 16.2.5, 2-(2-chloro-4-(trifluoromethyl)phenoxy)-1-(9-(5-cyclopropyl-3-fluoropyridin-2-yl)-6,9-dihydropyrido[4′,3′:4,5]imidazo[1,2-b]pyridazin-8(7H)-yl)ethan-1-one], in test [3], the IC50 worked out at 238 nM. Compound `O=C(COc1ccc(C(F)(F)F)nc1Cl)N1CCc2nc3cccnn3c2C1c1ncc(C2CC2)cc1F` (stereo not shown) [Example 16.2.6, 2-((2-chloro-6-(trifluoromethyl)pyridin-3-yl)oxy)-1-(9-(5-cyclopropyl-3-fluoropyridin-2-yl)-6,9-dihydropyrido[4′,3′:4,5]imidazo[1,2-b]pyridazin-8(7H)-yl)ethan-1-one] had an IC50 in test [3] of 290 nM.

In test [3], `CN(C)C(=O)c1csc(C2c3c(nc4cccnn34)CCN2C(=O)COc2ccc(N3CCOCC3)nc2Cl)c1` (stereo not shown) [Example 16.3.1, 5-(8-(2-((2-Chloro-6-morpholinopyridin-3-yl)oxy)acetyl)-6,7,8,9-tetrahydropyrido[4′,3′:4,5]imidazo[1,2-b]pyridazin-9-yl)-N,N-dimethylthiophene-3-carboxamide] yielded an IC50 of 43 nM. Regarding `CS(=O)(=O)Nc1ccc(OCC(=O)N2CCc3nc4cccnn4c3C2c2ccc(Cl)cc2F)c(Cl)n1` (stereo not shown) [Example 16.4.1, N-(6-chloro-5-(2-(9-(4-chloro-2-fluorophenyl)-6,9-dihydropyrido[4′,3′:4,5]imidazo[1,2-b]pyridazin-8(7H)-yl)-2-oxoethoxy)pyridin-2-yl)methanesulfonamide], in test [3], it took 167 nM to reach half-maximal inhibition (IC50). For the compound `CCc1nc(NS(C)(=O)=O)ccc1OCC(=O)N1CCc2nc3cccnn3c2C1c1sc(C)nc1C` (stereo not shown) [Example 16.5.1, N-(5-(2-(9-(2,4-dimethylthiazol-5-yl)-6,9-dihydropyrido[4′,3′:4,5]imidazo[1,2-b]pyridazin-8(7H)-yl)-2-oxoethoxy)-6-ethylpyridin-2-yl)methanesulfonamide], the IC50 in test [3] turned out to be 31 nM. On to `O=C(COc1ccc(N2CCOCC2)nc1Cl)N1CCc2nc3cnccn3c2C1c1ccc(C2CC2)cc1F` (stereo not shown) [Example 17.1.1, 2-((2-chloro-6-morpholinopyridin-3-yl)oxy)-1-(1-(4-cyclopropyl-2-fluorophenyl)-3,4-dihydropyrido[4′,3′:4,5]imidazo[1,2-a]pyrazin-2(1H)-yl)ethan-1-one], for which half-maximal inhibition in test [3] (IC50) was put at 29 nM. As to `CS(=O)(=O)Nc1ccc(OCC(=O)N2CCc3nc4cnccn4c3C2c2ccc(Cl)cc2F)c(Cl)n1` (stereo not shown) [Example 17.2.1, N-(6-chloro-5-(2-(1-(4-chloro-2-fluorophenyl)-3,4-dihydropyrido[4′,3′:4,5]imidazo[1,2-a]pyrazin-2(1H)-yl)-2-oxoethoxy)pyridin-2-yl)methanesulfonamide], the IC50 in test [3] was determined as 214 nM.

As for `CCc1nc(NS(C)(=O)=O)ccc1OCC(=O)N1CCc2nc3cnccn3c2C1c1sc(C)nc1C` (stereo not shown) [Example 17.3.1, N-(5-(2-(1-(2,4-dimethylthiazol-5-yl)-3,4-dihydropyrido[4′,3′:4,5]imidazo[1,2-a]pyrazin-2(1H)-yl)-2-oxoethoxy)-6-ethylpyridin-2-yl)methanesulfonamide], in test [3], the IC50 came to 461 nM. `O=C(COc1ccc(N2CCOCC2)nc1Cl)N1CCc2nc3ncccn3c2C1c1ccc(C2CC2)cc1F` (stereo not shown) [Example 18.1.1, 2-((2-chloro-6-morpholinopyridin-3-yl)oxy)-1-(6-(4-cyclopropyl-2-fluorophenyl)-8,9-dihydropyrido[4′,3′:4,5]imidazo[1,2-a]pyrimidin-7(6H)-yl)ethan-1-one] registered an IC50 in test [3] of 56 nM. As for `Nc1nc(OC(c2ccc(-c3cccc(F)c3)cc2)C(F)(F)F)cc(-c2ccc(C[C@H](N)C(=O)O)cc2)n1` (stereo partly shown) [LP533401], the “brain 5HT concentrations” value in test [4] (brain) is listed as “without effecting brain concentrations”. Also, the “gut 5HT” value in test [4] (gut) is given as “lower gut 5HT”.

On to `COc1cccc(-c2ccc([C@@H](Oc3cc(-c4ccc(C[C@H](N)C(=O)O)cc4)nc(N)n3)C(F)(F)F)cc2)c1` [LX1031, (S)-2-Amino-3-(4-{2-amino-6-[(R)-2,2,2-trifluoro-1-(3′-methoxy-biphenyl-4-yl)-ethoxy]-pyrimidin-4-yl}-phenyl)-propionic acid], for which, in test [5], the “blood 5HT” value is “did not affect blood 5HT” and the “urinary 5HIAA reduction” value was “up to 30%”. For the same compound, the “brain 5HT” value in test [6] (brain) was “no effect on brain 5HT”. For the same compound, the “5HT in the colon” value in test [6] (colon) is recorded as “only a minor reduction”. For the same compound, the “5HT in the jejunum” value in test [6] (jejunum) is “lowers 5HT in the jejunum”.
